Experimental data from ChEMBL document CHEMBL1142283, “Thiosulfinates from Allium tuberosum L. induce apoptosis via caspase-dependent and -independent pathways in PC-3 human prostate cancer cells” (Bioorg Med Chem Lett, 2008).
Calls of active or inactive are those of the source. The rule behind the calls is not given here.

Experiments:
PC-3 [1] = assay: Induction of apoptosis in human PC3 cells assessed as DNA fragmentation at 5 ug/mL after 24 hrs by ELISA relative to control; assay type: functional
[2] = Cytotoxicity against human RC58T/h/SA#4 cells after 24 hrs by SRB assay; assay type: functional, cell-based
LNCaP = assay: Cytotoxicity against human LNCap cells after 24 hrs by SRB assay; assay type: functional, cell-based
PC-3 [3] = assay: Cytotoxicity against human PC3 cells after 24 hrs by SRB assay; assay type: functional, cell-based; details: PC-3, 24 h
DU-145 = assay: Cytotoxicity against human DU145 cells after 24 hrs by SRB assay; assay type: functional, cell-based; details: DU-145, 24 h
PC-3 [4] = assay: Growth inhibition of human PC3 cells by SRB assay; assay type: functional, cell-based; details: TDE = time-dependent effect
PC-3 [5] = assay: Growth inhibition of human PC3 cells assessed as decrease in cell numbers by trypan blue assay; assay type: functional, cell-based
PC-3 [6] = assay: Induction of cell death in human PC3 cells by trypan blue assay; assay type: functional, cell-based
PC-3 [7] = assay: Induction of apoptosis in human PC3 cells after 24 hrs by Hoechst staining; assay type: functional, cell-based
PC-3 [8] = assay: Induction of apoptosis in human PC3 cells assessed as DNA fragmentation at 10 ug/mL after 24 hrs by ELISA relative to control; assay type: functional
PC-3 [9] = assay: Induction of apoptosis in human PC3 cells assessed as DNA fragmentation at 20 ug/mL after 24 hrs by ELISA relative to control; assay type: functional
PC-3 [10] = assay: Cell cycle arrest in human PC3 cells assessed as accumulation at subG1 phase after 24 hrs by flow cytometry; assay type: functional, cell-based
PC-3 [11] = assay: Induction of PARP cleavage in human PC3 cells after 24 hrs by Western blot; assay type: functional, cell-based
PC-3 [12] = assay: Induction of apoptosis in human PC3 cells assessed as caspase 8 activity at 10 ug/mL relative to control; assay type: functional
PC-3 [13] = assay: Induction of apoptosis in human PC3 cells assessed as caspase 9 activity at 10 ug/mL relative to control; assay type: functional
PC-3 [14] = assay: Induction of apoptosis in human PC3 cells assessed as caspase 3 activity at 10 ug/mL relative to control; assay type: functional
PC-3 [15] = assay: Reversal of induction of apoptosis in human PC3 cells in presence of caspase inhibitor Z-VAD-fmk; assay type: functional, cell-based
PC-3 [16] = assay: Induction of cell death in human PC3 cells in presence of caspase inhibitor Z-VAD-fmk; assay type: functional, cell-based
PC-3 [17] = assay: Increase in Bax protein expression in human PC3 cells by Western blot; assay type: functional, cell-based
PC-3 [18] = assay: Decrease in Bcl2 protein expression in human PC3 cells by Western blot; assay type: functional, cell-based
PC-3 [19] = assay: Induction of Bid protein cleavage in human PC3 cells by Western blot; assay type: functional, cell-based
PC-3 [20] = assay: Induction of AIF protein translocation into nucleus in human PC3 cells after 24 hrs by immunostaining; assay type: functional, cell-based
PC-3 [21] = assay: Induction of apoptosis in human PC3 cells assessed as caspase 3 activity at 5 ug/mL; assay type: functional, cell-based
PC-3 [22] = assay: Induction of apoptosis in human PC3 cells assessed as caspase 3 activity at 10 ug/mL; assay type: functional, cell-based
PC-3 [23] = assay: Induction of apoptosis in human PC3 cells assessed as caspase 3 activity at 20 ug/mL; assay type: functional, cell-based
PC-3 [24] = assay: Increase in AIF protein levels in human PC3 cells after 24 hrs by Western blot; assay type: functional, cell-based

Row | SMILES | Fold change (PC-3 [1]) | IC50 [2] [µM] | IC50 (LNCaP) [µM] | IC50 (PC-3 [3]) [µM] | IC50 (DU-145) [µM] | Activity (PC-3 [4]) | Activity (PC-3 [5]) | Activity (PC-3 [6]) | Activity (PC-3 [7]) | Fold change (PC-3 [8]) | Fold change (PC-3 [9]) | Activity (PC-3 [10]) | Activity (PC-3 [11]) | Fold change (PC-3 [12]) | Fold change (PC-3 [13]) | Fold change (PC-3 [14]) | Activity (PC-3 [15]) | Activity (PC-3 [16]) | Activity (PC-3 [17]) | Activity (PC-3 [18]) | other results
1 | CS[S+](C)[O-] (configuration not stated) | 1.3 | 96.1 | 102 | 166 | 184 | tde | Dose-dependent effect | Dose-dependent effect | Active | 1.7 | 1.8 | Dose-dependent effect | Active | 1.9 | 2.1 | 1.7 | Active | Active | Dose-dependent effect | Dose-dependent effect | Activity (PC-3 [19]): Active; Activity (PC-3 [20]): Active; Activity (PC-3 [21]): Active; Activity (PC-3 [22]): Active; Activity (PC-3 [23]): Active; Activity (PC-3 [24]): Active
2 | C=CC[S+]([O-])SC (configuration not stated) | 1.3 | 25.3 | 29.7 | 62.9 | 85.8 | tde | Dose-dependent effect | Dose-dependent effect | Active | 1.7 | 1.8 | Dose-dependent effect | Active | 1.9 | 2.1 | 1.7 | Active | Active | Dose-dependent effect | Dose-dependent effect | Activity (PC-3 [19]): Active; Activity (PC-3 [20]): Active; Activity (PC-3 [21]): Active; Activity (PC-3 [22]): Active; Activity (PC-3 [23]): Active; Activity (PC-3 [24]): Active
